{"source": "ChEMBL document CHEMBL5442219", "conditions_in_all_cases": "Compound concentration 10 µM", "key": {"[1]": {"molecular_target": "T1, Alpha-1B adrenergic receptor (Homo sapiens) (UniProt P35368)", "T1 sequence (whole entry)": "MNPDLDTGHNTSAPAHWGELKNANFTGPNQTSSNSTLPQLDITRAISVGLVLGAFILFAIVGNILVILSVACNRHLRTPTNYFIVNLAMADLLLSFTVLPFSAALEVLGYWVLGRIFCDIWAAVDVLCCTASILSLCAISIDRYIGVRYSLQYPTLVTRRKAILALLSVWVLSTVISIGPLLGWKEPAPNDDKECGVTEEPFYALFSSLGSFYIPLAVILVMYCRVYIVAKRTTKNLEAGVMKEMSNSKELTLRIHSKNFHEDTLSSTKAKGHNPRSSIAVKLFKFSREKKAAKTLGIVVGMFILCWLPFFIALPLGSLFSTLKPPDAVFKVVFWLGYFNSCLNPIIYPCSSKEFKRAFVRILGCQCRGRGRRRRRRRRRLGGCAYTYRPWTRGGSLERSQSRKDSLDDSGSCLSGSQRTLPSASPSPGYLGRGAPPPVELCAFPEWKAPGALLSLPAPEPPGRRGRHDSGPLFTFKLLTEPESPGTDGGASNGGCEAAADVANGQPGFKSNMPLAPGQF", "description": "PDSP Primary Binding target: ADRA1B - Compounds are tested at 10 uM concentration, plate are incubated at room temperature in the dark for 90 minutes. Reaction are stopped by vacuum filtration onto 0.3% polyethyleneimine soaked filter mats using Filtermate harvester. Scintilation cocktail is then melted onto microwave-dried filters on a hot plate and the radio activity is counted in Microbia counter."}, "[2]": {"molecular_target": "T2, Alpha-1D adrenergic receptor (Homo sapiens) (UniProt P25100)", "T2 sequence (whole entry)": "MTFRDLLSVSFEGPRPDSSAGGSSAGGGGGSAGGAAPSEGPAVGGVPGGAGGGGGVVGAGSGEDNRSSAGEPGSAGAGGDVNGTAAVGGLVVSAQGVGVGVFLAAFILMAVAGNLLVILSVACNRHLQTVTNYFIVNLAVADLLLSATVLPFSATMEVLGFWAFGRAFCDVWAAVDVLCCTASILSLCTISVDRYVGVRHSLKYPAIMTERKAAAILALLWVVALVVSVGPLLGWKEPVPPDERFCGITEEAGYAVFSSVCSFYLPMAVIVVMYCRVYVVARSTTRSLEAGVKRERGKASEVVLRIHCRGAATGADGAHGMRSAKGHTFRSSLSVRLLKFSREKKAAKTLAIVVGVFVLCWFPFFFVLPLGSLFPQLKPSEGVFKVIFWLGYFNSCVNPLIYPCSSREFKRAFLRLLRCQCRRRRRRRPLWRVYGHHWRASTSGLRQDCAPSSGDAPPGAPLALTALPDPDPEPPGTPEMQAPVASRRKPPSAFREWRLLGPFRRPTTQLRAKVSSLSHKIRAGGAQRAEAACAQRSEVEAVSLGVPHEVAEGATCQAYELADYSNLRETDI", "description": "PDSP Primary Binding target: ADRA1D - Compounds are tested at 10 uM concentration, plate are incubated at room temperature in the dark for 90 minutes. Reaction are stopped by vacuum filtration onto 0.3% polyethyleneimine soaked filter mats using Filtermate harvester. Scintilation cocktail is then melted onto microwave-dried filters on a hot plate and the radio activity is counted in Microbia counter."}, "[3]": {"molecular_target": "T3, Alpha-2C adrenergic receptor (Homo sapiens) (UniProt P18825)", "T3 sequence (whole entry)": "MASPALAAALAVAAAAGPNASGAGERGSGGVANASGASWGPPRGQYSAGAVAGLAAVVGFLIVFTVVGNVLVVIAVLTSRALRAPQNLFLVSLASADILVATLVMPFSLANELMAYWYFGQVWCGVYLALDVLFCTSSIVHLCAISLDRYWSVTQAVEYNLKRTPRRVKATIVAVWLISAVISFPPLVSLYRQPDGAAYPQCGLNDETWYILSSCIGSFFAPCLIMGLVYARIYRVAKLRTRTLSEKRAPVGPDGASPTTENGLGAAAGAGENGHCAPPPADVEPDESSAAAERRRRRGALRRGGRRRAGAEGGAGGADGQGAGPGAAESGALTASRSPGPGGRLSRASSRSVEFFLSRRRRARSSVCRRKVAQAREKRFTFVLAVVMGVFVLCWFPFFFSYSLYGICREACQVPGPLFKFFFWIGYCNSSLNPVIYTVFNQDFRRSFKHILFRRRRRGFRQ", "description": "PDSP Primary Binding target: ADRA2C - Compounds are tested at 10 uM concentration, plate are incubated at room temperature in the dark for 90 minutes. Reaction are stopped by vacuum filtration onto 0.3% polyethyleneimine soaked filter mats using Filtermate harvester. Scintilation cocktail is then melted onto microwave-dried filters on a hot plate and the radio activity is counted in Microbia counter."}, "[4]": {"molecular_target": "T4, 5-hydroxytryptamine receptor 1A (Homo sapiens) (UniProt P08908)", "T4 sequence (whole entry)": "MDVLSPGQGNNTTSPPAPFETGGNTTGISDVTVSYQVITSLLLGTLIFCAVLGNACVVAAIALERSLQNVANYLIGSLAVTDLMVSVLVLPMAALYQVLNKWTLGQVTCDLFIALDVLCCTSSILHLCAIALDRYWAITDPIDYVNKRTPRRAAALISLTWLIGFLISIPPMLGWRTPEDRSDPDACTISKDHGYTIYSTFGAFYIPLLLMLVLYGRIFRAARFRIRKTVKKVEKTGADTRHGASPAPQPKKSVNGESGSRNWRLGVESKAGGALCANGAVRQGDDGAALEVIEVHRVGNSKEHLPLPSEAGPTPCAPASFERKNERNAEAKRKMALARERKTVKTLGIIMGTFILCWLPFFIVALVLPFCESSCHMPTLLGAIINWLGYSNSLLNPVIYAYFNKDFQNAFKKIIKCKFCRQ", "description": "PDSP Primary Binding target: HTR1A - Compounds are tested at 10 uM concentration, plate are incubated at room temperature in the dark for 90 minutes. Reaction are stopped by vacuum filtration onto 0.3% polyethyleneimine soaked filter mats using Filtermate harvester. Scintilation cocktail is then melted onto microwave-dried filters on a hot plate and the radio activity is counted in Microbia counter."}, "[5]": {"molecular_target": "5-hydroxytryptamine receptor 2B (Homo sapiens) (UniProt P41595)", "sequence (P41595 whole entry)": "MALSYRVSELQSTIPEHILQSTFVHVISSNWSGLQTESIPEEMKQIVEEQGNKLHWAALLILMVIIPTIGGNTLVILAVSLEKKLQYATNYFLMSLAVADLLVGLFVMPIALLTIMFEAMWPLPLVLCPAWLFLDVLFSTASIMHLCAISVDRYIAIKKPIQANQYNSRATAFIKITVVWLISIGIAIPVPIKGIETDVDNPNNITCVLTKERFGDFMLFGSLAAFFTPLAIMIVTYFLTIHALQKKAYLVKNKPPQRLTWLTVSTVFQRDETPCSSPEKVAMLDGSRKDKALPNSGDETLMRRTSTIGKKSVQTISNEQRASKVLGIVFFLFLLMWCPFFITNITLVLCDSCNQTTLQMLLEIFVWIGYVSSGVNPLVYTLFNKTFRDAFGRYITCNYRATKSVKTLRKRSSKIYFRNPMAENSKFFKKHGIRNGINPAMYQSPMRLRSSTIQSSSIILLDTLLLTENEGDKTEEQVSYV", "description": "PDSP Primary Binding target: HTR2B - Compounds are tested at 10 uM concentration, plate are incubated at room temperature in the dark for 90 minutes. Reaction are stopped by vacuum filtration onto 0.3% polyethyleneimine soaked filter mats using Filtermate harvester. Scintilation cocktail is then melted onto microwave-dried filters on a hot plate and the radio activity is counted in Microbia counter."}, "[6]": {"molecular_target": "T5, 5-hydroxytryptamine receptor 2C (Homo sapiens) (UniProt P28335)", "T5 sequence (whole entry)": "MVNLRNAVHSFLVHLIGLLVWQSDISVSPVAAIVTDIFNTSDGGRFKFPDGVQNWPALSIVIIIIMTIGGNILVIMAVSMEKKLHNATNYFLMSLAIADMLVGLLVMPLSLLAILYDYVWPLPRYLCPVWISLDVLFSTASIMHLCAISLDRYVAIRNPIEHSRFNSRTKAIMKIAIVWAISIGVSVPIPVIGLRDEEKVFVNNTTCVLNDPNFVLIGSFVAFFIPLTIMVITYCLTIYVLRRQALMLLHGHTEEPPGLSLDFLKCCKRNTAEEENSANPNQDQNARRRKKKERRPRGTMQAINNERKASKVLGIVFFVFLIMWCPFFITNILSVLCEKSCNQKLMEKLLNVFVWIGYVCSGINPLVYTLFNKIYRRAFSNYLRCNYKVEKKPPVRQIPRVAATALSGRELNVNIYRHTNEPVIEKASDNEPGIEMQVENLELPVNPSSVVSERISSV", "description": "PDSP Primary Binding target: HTR2C - Compounds are tested at 10 uM concentration, plate are incubated at room temperature in the dark for 90 minutes. Reaction are stopped by vacuum filtration onto 0.3% polyethyleneimine soaked filter mats using Filtermate harvester. Scintilation cocktail is then melted onto microwave-dried filters on a hot plate and the radio activity is counted in Microbia counter."}, "[7]": {"molecular_target": "Kappa-type opioid receptor (Homo sapiens) (UniProt P41145)", "sequence (P41145 whole entry)": "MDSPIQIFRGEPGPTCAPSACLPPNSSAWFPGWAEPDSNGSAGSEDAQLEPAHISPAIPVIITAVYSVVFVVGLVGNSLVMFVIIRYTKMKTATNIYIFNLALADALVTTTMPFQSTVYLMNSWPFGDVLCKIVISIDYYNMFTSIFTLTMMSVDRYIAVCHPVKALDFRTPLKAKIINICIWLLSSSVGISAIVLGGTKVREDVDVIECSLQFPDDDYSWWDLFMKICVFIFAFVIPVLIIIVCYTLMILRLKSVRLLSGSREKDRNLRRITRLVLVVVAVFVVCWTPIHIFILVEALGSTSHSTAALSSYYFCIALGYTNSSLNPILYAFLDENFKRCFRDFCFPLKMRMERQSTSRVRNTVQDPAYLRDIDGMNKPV", "description": "PDSP Primary Binding target: OPRK1 - Compounds are tested at 10 uM concentration, plate are incubated at room temperature in the dark for 90 minutes. Reaction are stopped by vacuum filtration onto 0.3% polyethyleneimine soaked filter mats using Filtermate harvester. Scintilation cocktail is then melted onto microwave-dried filters on a hot plate and the radio activity is counted in Microbia counter."}, "[8]": {"molecular_target": "Sodium-dependent dopamine transporter (Homo sapiens) (UniProt Q01959)", "sequence (Q01959 whole entry)": "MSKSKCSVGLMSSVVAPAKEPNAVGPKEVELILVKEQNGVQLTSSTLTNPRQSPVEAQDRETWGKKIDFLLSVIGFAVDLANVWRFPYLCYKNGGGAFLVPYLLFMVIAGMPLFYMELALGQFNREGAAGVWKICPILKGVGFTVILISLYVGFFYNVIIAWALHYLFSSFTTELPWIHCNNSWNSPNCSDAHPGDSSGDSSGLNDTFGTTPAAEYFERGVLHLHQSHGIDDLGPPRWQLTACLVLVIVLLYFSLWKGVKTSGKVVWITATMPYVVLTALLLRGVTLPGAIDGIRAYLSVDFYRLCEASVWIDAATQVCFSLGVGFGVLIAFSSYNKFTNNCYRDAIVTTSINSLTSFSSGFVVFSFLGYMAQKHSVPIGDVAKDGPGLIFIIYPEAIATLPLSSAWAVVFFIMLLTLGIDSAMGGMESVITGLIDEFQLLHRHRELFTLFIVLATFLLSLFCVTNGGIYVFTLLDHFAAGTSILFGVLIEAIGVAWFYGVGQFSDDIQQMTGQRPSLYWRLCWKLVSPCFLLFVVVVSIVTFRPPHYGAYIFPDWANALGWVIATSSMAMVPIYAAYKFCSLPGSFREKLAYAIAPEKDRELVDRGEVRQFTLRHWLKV", "description": "PDSP Primary Binding target: SLC6A3 - Compounds are tested at 10 uM concentration, plate are incubated at room temperature in the dark for 90 minutes. Reaction are stopped by vacuum filtration onto 0.3% polyethyleneimine soaked filter mats using Filtermate harvester. Scintilation cocktail is then melted onto microwave-dried filters on a hot plate and the radio activity is counted in Microbia counter."}, "[9]": {"molecular_target": "Sodium-dependent serotonin transporter (Homo sapiens) (UniProt P31645)", "sequence (P31645 whole entry, looked up)": "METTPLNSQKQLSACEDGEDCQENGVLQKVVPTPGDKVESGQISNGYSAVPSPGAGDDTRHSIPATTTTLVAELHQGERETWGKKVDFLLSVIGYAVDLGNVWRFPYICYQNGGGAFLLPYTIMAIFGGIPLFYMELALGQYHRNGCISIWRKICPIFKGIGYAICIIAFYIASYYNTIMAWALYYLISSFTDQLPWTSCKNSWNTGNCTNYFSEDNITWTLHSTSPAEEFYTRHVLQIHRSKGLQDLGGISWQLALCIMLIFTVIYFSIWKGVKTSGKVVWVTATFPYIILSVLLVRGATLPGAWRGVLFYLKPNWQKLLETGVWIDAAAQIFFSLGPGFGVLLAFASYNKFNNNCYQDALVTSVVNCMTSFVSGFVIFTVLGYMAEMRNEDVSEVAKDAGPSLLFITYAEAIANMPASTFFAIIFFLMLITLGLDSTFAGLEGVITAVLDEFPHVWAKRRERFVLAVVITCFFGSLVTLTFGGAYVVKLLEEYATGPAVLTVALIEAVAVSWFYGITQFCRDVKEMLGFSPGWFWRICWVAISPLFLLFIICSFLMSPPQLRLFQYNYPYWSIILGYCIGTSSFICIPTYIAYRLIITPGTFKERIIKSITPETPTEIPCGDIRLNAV", "description": "PDSP Primary Binding target: SLC6A4 - Compounds are tested at 10 uM concentration, plate are incubated at room temperature in the dark for 90 minutes. Reaction are stopped by vacuum filtration onto 0.3% polyethyleneimine soaked filter mats using Filtermate harvester. Scintilation cocktail is then melted onto microwave-dried filters on a hot plate and the radio activity is counted in Microbia counter."}, "[10]": {"molecular_target": "Translocator protein (Homo sapiens) (UniProt P30536)", "sequence (P30536 whole entry)": "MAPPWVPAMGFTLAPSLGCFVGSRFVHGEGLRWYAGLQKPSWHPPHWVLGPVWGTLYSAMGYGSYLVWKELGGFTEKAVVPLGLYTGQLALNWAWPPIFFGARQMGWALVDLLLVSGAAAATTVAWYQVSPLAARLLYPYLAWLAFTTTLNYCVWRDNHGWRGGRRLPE", "description": "PDSP Primary Binding target: TSPO - Compounds are tested at 10 uM concentration, plate are incubated at room temperature in the dark for 90 minutes. Reaction are stopped by vacuum filtration onto 0.3% polyethyleneimine soaked filter mats using Filtermate harvester. Scintilation cocktail is then melted onto microwave-dried filters on a hot plate and the radio activity is counted in Microbia counter."}}}
{"compound": "COc1ccc(NC(=O)c2ccc(-c3ccc(-c4noc(C)n4)cc3C)cc2)cc1OCCN(C)C", "values": [{"measurement": "inhibition", "setting": "[1]", "value": 26.8, "unit": "%"}, {"measurement": "inhibition", "setting": "[2]", "value": 38, "unit": "%"}, {"measurement": "inhibition", "setting": "[3]", "value": 79, "unit": "%"}, {"measurement": "inhibition", "setting": "[4]", "value": 32.1, "unit": "%"}, {"measurement": "inhibition", "setting": "[5]", "value": 90.6, "unit": "%"}, {"measurement": "inhibition", "setting": "[6]", "value": 98.3, "unit": "%"}, {"measurement": "inhibition", "setting": "[7]", "value": 44, "unit": "%"}, {"measurement": "inhibition", "setting": "[8]", "value": 86.1, "unit": "%"}, {"measurement": "inhibition", "setting": "[9]", "value": 55.4, "unit": "%"}, {"measurement": "inhibition", "setting": "[10]", "value": 31.1, "unit": "%"}]}
{"compound": "CCCNS(=O)(=O)Nc1ncnc(OCCOc2ncc(Br)cn2)c1-c1ccc(Br)cc1", "values": [{"measurement": "inhibition", "setting": "[1]", "value": 12.1, "unit": "%"}, {"measurement": "inhibition", "setting": "[2]", "value": 0.01, "unit": "%"}, {"measurement": "inhibition", "setting": "[3]", "value": -8.41, "unit": "%"}, {"measurement": "inhibition", "setting": "[4]", "value": 9.06, "unit": "%"}, {"measurement": "inhibition", "setting": "[6]", "value": 4.95, "unit": "%"}, {"measurement": "inhibition", "setting": "[7]", "value": 1.8, "unit": "%"}, {"measurement": "inhibition", "setting": "[8]", "value": 31.1, "unit": "%"}, {"measurement": "inhibition", "setting": "[9]", "value": 67.2, "unit": "%"}, {"measurement": "inhibition", "setting": "[10]", "value": 51.2, "unit": "%"}]}
{"compound": "Cc1cn2cc(CC(=O)N3CCC4(CC3)CN(Cc3ccc(-n5nccn5)cc3Cl)C4)nc2s1", "values": [{"measurement": "inhibition", "setting": "[1]", "value": 33.4, "unit": "%"}, {"measurement": "inhibition", "setting": "[2]", "value": 13.3, "unit": "%"}, {"measurement": "inhibition", "setting": "[3]", "value": 35.9, "unit": "%"}, {"measurement": "inhibition", "setting": "[4]", "value": 13, "unit": "%"}, {"measurement": "inhibition", "setting": "[5]", "value": 19.4, "unit": "%"}, {"measurement": "inhibition", "setting": "[6]", "value": -3.75, "unit": "%"}, {"measurement": "inhibition", "setting": "[7]", "value": 35.7, "unit": "%"}, {"measurement": "inhibition", "setting": "[8]", "value": 44.2, "unit": "%"}, {"measurement": "inhibition", "setting": "[9]", "value": 11.6, "unit": "%"}, {"measurement": "inhibition", "setting": "[10]", "value": 0.99, "unit": "%"}]}
{"compound": "O=C(O)c1cc(-c2ccc(C3CCNCC3)cc2)c2ccc(-c3ccc(C(F)(F)F)cc3)cc2c1", "values": [{"measurement": "inhibition", "setting": "[1]", "value": 38.4, "unit": "%"}, {"measurement": "inhibition", "setting": "[2]", "value": 16.7, "unit": "%"}, {"measurement": "inhibition", "setting": "[3]", "value": 27.2, "unit": "%"}, {"measurement": "inhibition", "setting": "[4]", "value": 51.4, "unit": "%"}, {"measurement": "inhibition", "setting": "[5]", "value": 26.6, "unit": "%"}, {"measurement": "inhibition", "setting": "[6]", "value": -3.35, "unit": "%"}, {"measurement": "inhibition", "setting": "[7]", "value": 19.2, "unit": "%"}, {"measurement": "inhibition", "setting": "[8]", "value": 82.5, "unit": "%"}, {"measurement": "inhibition", "setting": "[9]", "value": 4.44, "unit": "%"}, {"measurement": "inhibition", "setting": "[10]", "value": 21.7, "unit": "%"}]}
{"compound": "COc1ccccc1N1CCN(CCCCNC(=O)c2ccc3ccccc3c2)CC1", "values": [{"measurement": "inhibition", "setting": "[1]", "value": 96.8, "unit": "%"}, {"measurement": "inhibition", "setting": "[2]", "value": 94, "unit": "%"}, {"measurement": "inhibition", "setting": "[3]", "value": 111, "unit": "%"}, {"measurement": "inhibition", "setting": "[4]", "value": 108, "unit": "%"}, {"measurement": "inhibition", "setting": "[5]", "value": 97, "unit": "%"}, {"measurement": "inhibition", "setting": "[6]", "value": 97.9, "unit": "%"}, {"measurement": "inhibition", "setting": "[7]", "value": 35.6, "unit": "%"}, {"measurement": "inhibition", "setting": "[8]", "value": 73.9, "unit": "%"}, {"measurement": "inhibition", "setting": "[9]", "value": 83.7, "unit": "%"}, {"measurement": "inhibition", "setting": "[10]", "value": 78.8, "unit": "%"}]}
{"compound": "CNc1nc(NCc2ccc(NS(C)(=O)=O)cc2Cl)cc(-c2ccccn2)n1", "values": [{"measurement": "inhibition", "setting": "[1]", "value": 26.4, "unit": "%"}, {"measurement": "inhibition", "setting": "[2]", "value": 12.4, "unit": "%"}, {"measurement": "inhibition", "setting": "[3]", "value": 50.4, "unit": "%"}, {"measurement": "inhibition", "setting": "[4]", "value": 0.99, "unit": "%"}, {"measurement": "inhibition", "setting": "[5]", "value": 66.5, "unit": "%"}, {"measurement": "inhibition", "setting": "[6]", "value": 55.4, "unit": "%"}, {"measurement": "inhibition", "setting": "[7]", "value": 73.2, "unit": "%"}, {"measurement": "inhibition", "setting": "[8]", "value": 47.6, "unit": "%"}, {"measurement": "inhibition", "setting": "[9]", "value": 42.1, "unit": "%"}, {"measurement": "inhibition", "setting": "[10]", "value": 54.8, "unit": "%"}]}
{"compound": "N[C@H](C(=O)O)c1ccc(C(=O)O)c(C(=O)O)c1", "values": [{"measurement": "inhibition", "setting": "[1]", "value": -0.2, "unit": "%"}, {"measurement": "inhibition", "setting": "[2]", "value": 10.3, "unit": "%"}, {"measurement": "inhibition", "setting": "[3]", "value": -9.35, "unit": "%"}, {"measurement": "inhibition", "setting": "[4]", "value": 8.99, "unit": "%"}, {"measurement": "inhibition", "setting": "[6]", "value": 13.4, "unit": "%"}, {"measurement": "inhibition", "setting": "[7]", "value": 4.93, "unit": "%"}, {"measurement": "inhibition", "setting": "[8]", "value": 44, "unit": "%"}, {"measurement": "inhibition", "setting": "[9]", "value": 69.3, "unit": "%"}, {"measurement": "inhibition", "setting": "[10]", "value": 13.8, "unit": "%"}]}
{"compound": "CC(C)[C@H](CO)Nc1nc(Nc2cccc(Cl)c2)c2ncn(C(C)C)c2n1", "values": [{"measurement": "inhibition", "setting": "[1]", "value": 12.9, "unit": "%"}, {"measurement": "inhibition", "setting": "[2]", "value": 13, "unit": "%"}, {"measurement": "inhibition", "setting": "[3]", "value": 28.4, "unit": "%"}, {"measurement": "inhibition", "setting": "[4]", "value": 5.71, "unit": "%"}, {"measurement": "inhibition", "setting": "[5]", "value": 96.2, "unit": "%"}, {"measurement": "inhibition", "setting": "[6]", "value": 51, "unit": "%"}, {"measurement": "inhibition", "setting": "[7]", "value": 34.6, "unit": "%"}, {"measurement": "inhibition", "setting": "[8]", "value": 17.5, "unit": "%"}, {"measurement": "inhibition", "setting": "[9]", "value": 3.66, "unit": "%"}, {"measurement": "inhibition", "setting": "[10]", "value": 76.5, "unit": "%"}]}
